Measured values reported in patent US12252708B2, “Living mammalian cells modified with functional modular nanoparticles” (UNM Rainforest Innovations, priority 2018, dated 2025).

System: HeLa cells
Experiment: Cytoprotection test to DOX
Format: cell-based
Conditions: native HeLa cells and SupraCell-MIL-100(Fe); nearly identical dose response curve; 2 hours
Protocol: Then, the anticancer drug doxorubicin (diameter about 1.6 nm) or cytotoxic silver (Ag) nanocrystals (diameter about 5.0 nm) were added into the culture medium at different concentrations.
Cytoprotection test to DOX. The cytoprotection test was performed on Supracell-MIL-100 (Fe). Briefly, the native HeLa cells and Supracell-MIL-100 (Fe) were seeded on 96-well plate at the density of 200,000 cells/mL. Then different concentration of DOX (0.01, 0.1, 1.0, 10, 20, and 50 μg/ML) was added in the cell culture media under cell culture condition. After incubation for 2 hours, the viability of the cells or SupraCells was measured by CellTiter-Glo® 2.0 Assay.

With `COc1cccc2c1C(=O)c1c(O)c3c(c(O)c1C2=O)C[C@@](O)(C(=O)CO)C[C@@H]3O[C@H]1C[C@H](N)[C@H](O)[C@H](C)O1` [doxorubicin] the “sensitivity of cells to the drug (viability)” value was “sensitive”.
